Assays:
[1] = system: L. infantum promastigote forms; test: In vitro activity against extracellular (promastigote) forms; format: cell-based, Leishmania infantum; settings: for Selectivity Index (SI) L. infantum Promastigote forms: IC50 of macrophages / IC50 of parasite form; for IC50: Leishmania infantum, 72 h
Source text: (§1) Methodology: Cultures of three Leishmania species, representative of the species causing each of the clinical forms of the disease, were used for these studies. Specifically, strains MCAN/ES/2001/UCM-1 O of L.infantum, isolated and characterised in Madrid from an infected dog; MHOM/BR/1975/M2904 of L.braziliensis, isolated in Brazil in a human case, and LCR-L 133 LRC of L.donovani. isolated in Jerusalem, Israel from a case of kala-azar […] (WHO Technical Reports Series 949. Geneva: WHO. March. The cultures of parasites come from an own collection which was prepared from a biobank project (Biobank and Characterisation Unit of Strains and Species of Trypanosomatids, Responsible for Human, Animal and Plant Pathologies, Cgl-2008-03687-E/Bos.), and are available on request.
(§2) The promastigote forms of the three species studied were cultured in vitro in sterility in single-phase MTL culture medium (Medium Trypanosomes Liquid) made from Hank’s Balanced Salts (Sigma-Aldrich, H6136) enriched with 10% (v/v) of Fetal Bovine Serum (SBF-1) inactivated at 56° C./ 30 minutes. The parasite inoculum to initiate the culture was 5 × 10^4 cells/ml in 5 ml medium in 25 cm^2 Falcon® plastic flasks and kept in an oven at 28° C. The cultures were performed routinely, achieving exponential growth of the flagellates until obtaining the cell mass necessary for the subsequent studies. Both promastigote forms and amastigote forms were used to conduct the assays.
(§3) The promastigote forms of the three Leishmania strains, cultured in the manner described above, were harvested in their exponential growth phase by centrifugation at 400 g for 10 min. The number of parasites was counted in a Neubauer Haemocytometer Counting Chamber and were inoculated in a 24-well plate at a concentration of 5 ×10^4 parasites/well.
(§4) The compounds to be assayed were dissolved in DMSO at a concentration of 0.01% (v/v), concentration at which this solvent is not toxic nor has any effect on the growth of parasites. The compounds were added to the culture medium at final concentrations of 100, 50, 25 and 12.5 µM. […] M. et al. Med. Chem. 2011. 54. 970-979].

[2] = system: L. infantum amastigote forms; test: In vitro activity against intracellular (amastigote) forms in macrophages; format: cell-based, Leishmania infantum; settings: for Selectivity Index (SI) L. infantum Amastigote forms: IC50 of macrophages / IC50 of parasite form; for IC50: Leishmania infantum, Macrophage, 72 h
Source text: as §1
(§5) For the study of the in vitro effect on intracellular forms of Leishmania, the experimental model designed by the group of the present inventors was used [Sánchez-Moreno. M. et al. Med. Chem. 2012, 55, 9900-9913; Sánchez-Moreno. M. et al. J. Antimicrob. Chemother. 2012, 67, 387-397]. The macrophages were detached from the culture flask where they were attached by dry blows. To do this, it was incubated in cold for 5 minutes and after that the flask was hit with the palm of the hand until the cells were detached from the flask. Then, they were passed to a 25 ml capacity steriling conical bottom flask (Deltalab) to centrifuge them at 120 g for 5 minutes, removing the supernatant and were counted in Neubauer’s chamber. Cells were suspended in RPMI medium at a concentration of 1×10^4 cells/well, then cultured in 24-well plates into which a 12 mm round slide had previously been placed into each well. For adherence, the cells were left 24 h at 37° C. in 5% CO2. Subsequently, the cells were infected in vitro by placing Leishmania cells at the rate of 10 parasites/macrophage according to [Sánchez-Moreno. M et al. Med. Chem. 2011, 54, 970-979]. […] The products were allowed to act for 72 hours of incubation.
(§6) After that time, the crystals were removed and fixed with methanol on a slide and allowed to dry, after which DPX microscopy mounting medium (Panreac®) was added to it. Once the preparations had been mounted, they were dyed with Giemsa by diluting Azur-Eosin-Methylene Blue solution according to Giemsa DC (Code 251338) with Sorensen buffer (1:10 dilution). The preparations were covered and allowed to colour for 20 minutes, after which they were washed with distilled water and then allowed to drain and dry vertically. Finally, the amastigote forms were counted with the aim of immersion in a total of 200 cells.

[3] = system: L. braziliensis promastigote forms; test: In vitro activity against extracellular (promastigote) forms; format: cell-based, Leishmania braziliensis; settings: for Selectivity Index (SI) L. brazilensis Promastigote forms: IC50 of macrophages / IC50 of parasite form; for IC50: Leishmania braziliensis, 72 h
Source text: as §1, §2, §3, §4

[4] = system: L. donovani promastigote forms; test: as above; format: cell-based, Leishmania donovani; settings: for Selectivity Index (SI) L. donvovani Promastigote forms: IC50 of macrophages / IC50 of parasite form; for IC50: Leishmania donovani, 72 h
Source text: as §1, §2, §3, §4

[5] = system: L. donovani amastigote forms; test: In vitro activity against intracellular (amastigote) forms in macrophages; format: cell-based, Leishmania donovani; settings: for Selectivity Index (SI) L. donvovani Amastigote forms: IC50 of macrophages / IC50 of parasite form; for IC50: Leishmania donovani, Macrophage, 72 h
Source text: as §1, §5, §6

[6] = system: intracellular forms of L.infantum in J774.2 macrophages; test: Infection rate and parasite growth in infected macrophage cultures; format: cell-based, Leishmania infantum; settings: compound at IC25, 10 days
Description: Methodology: Macrophages of the J774.2 line preserved in the laboratory of the present inventors by cryopreservation at -80° C. and successive runs in MEM+Glutamine + 20% SBFI medium were used, which were deposited in a […] tube and centrifuged at 100 g for 5 minutes. The supernatant was discarded and the cells were resuspended in medium corresponding to a final concentration of 1×10^6 cells/ml. Subsequently, 10 μl of the cell suspension was deposited into each well of a 24-well culture plate each with a 10 mm diameter round slide. A final volume of 500 μl was completed with the culture medium and incubated for 24 h at 37° C. in humid atmosphere with 5% CO2. […] The non-phagocytic parasites and products were removed by washing and the infected cultures were maintained for 10 days in fresh medium added every 48 hours. The activity of the compounds was determined by the percentage of infected cells and the number of amastigotes per infected cell. Finally, the cultures were fixed and stained with methanol and Giemsa.

Compound	Selectivity Index (SI) L. infantum Promastigote forms [1]	IC50 [1] [µM]	Selectivity Index (SI) L. infantum Amastigote forms [2]	IC50 [2] [µM]	Selectivity Index (SI) L. brazilensis Promastigote forms [3]	IC50 [3] [µM]	Selectivity Index (SI) L. donvovani Promastigote forms [4]	IC50 [4] [µM]	Selectivity Index (SI) L. donvovani Amastigote forms [5]	IC50 [5] [µM]	Number of amastigotes per infected cell [6]	Percentage of infection (infection rate) [6]
CNCCNCc1ccccn1 [Compound 1, 1-{2-pyridyl}-2,5-diazahexane]	23	0.6 ± 0.2	20	0.7 ± 0.1	2	7.4 ± 0.6	2	7 ± 0.5	1	8.9 ± 0.9		
CNCCNCc1cccnc1 [Compound 2, 1-{3-pyridyl)-2,5-diazahexane]		6.4 ± 0.6		8.4 ± 0.5	76	4.1 ± 0.2	26	11.7 ± 0.8	21	14.4 ± 0.1	lowest values over time	lowest values over time
CNCCNCc1ccncc1 [Compound 3, 1-{4-pyridyl)-2,5-diazahexane]	18	12.6 ± 2.1	16	13.9 ± 1	16	14.3 ± 1	12	18.4 ± 0.8		5.1 ± 0.3		
CN(C)CCNCc1ccccn1 [Compound 4, 1-(2-pyridyl)-5-methyl-2,5-diazahexane]	43	28.6 ± 2.5	37	33.6 ± 1.4	33	37.3 ± 0.9	36	34.8 ± 1.5	32	38.8 ± 1.4	better (lower) than those obtained with compound 5	lower infection rate on day 10
CN(C)CCNCc1cccnc1 [Compound 5, 1-{3-pyridyl}-5-methyl-2,5-diazahexane]		9.2 ± 0.7		10 ± 0.8	14	16.7 ± 0.5	11	21.7 ± 1.6	13	17.6 ± 0.7		lower infection rates than compound 4 until 8 days had elapsed
CN(C)CCNCc1ccncc1 [Compound 6]	8	63.3 ± 1.5	21	23.6 ± 1.7	9	52.5 ± 5.1	7	67.9 ± 5.3		11.5 ± 1.3		
CN(C)CCNCc1ccc2ccccc2n1 [Compound 7]	5	84.4 ± 5.1	9	49.7 ± 3.6	4	105 ± 11.6	8	56.9 ± 2.7	11	38.9 ± 3.2		
CN(C)CCNCc1ccnc2ccccc12 [Compound 8, 1-{4-quinolyl)-5-methyl-2,5-diazahexane]	2 (2)	14.1 ± 0.6	2	11.5 ± 0.8	2	13.8 ± 0.7	2 (2)	12.8 ± 0.6	2	10.6 ± 0.6		
CNCCNCc1ccc2ccccc2n1 [Compound 9, 1-{2-quinolyl)-2,5-diazahexane]	23	15.6 ± 0.8	25	14.3 ± 0.6	13	28 ± 0.3	13	27.5 ± 0.4	11	31.9 ± 1.1		
CNCCNCc1ccnc2ccccc12 [Compound 10]	13	12.5 ± 1.1	9	18.7 ± 1.5	9	18.4 ± 1.1	7	24.1 ± 0.6	6	26.8 ± 2.1		

From patent US20230346769A1, “USE OF SIMPLE ACYCLIC POLYAMINES FOR THE TREATMENT OF DISEASES CAUSED BY PARASITES OF THE GENUS LEISHMANIA” (Universidad De Granada, priority 2020, published 2023)
